# Key:
# [1] = test system: Plasmodium falciparum DD2; experiment: Parasite lactate dehydrogenase (pLDH) assay over 72 h, CQ-resistant strain; assay type: cell-based; details: for Resistance index: IC50 (resistant strain)/IC50 (sensitive strain), DD2/NF54; for IC50: Plasmodium falciparum, CQ-resistant DD2, pLDH 72 h, n = 3, read-out: Plasmodium falciparum IC50 DD2
# Description: The assay was performed in quadruplicate. The data were analyzed by nonlinear regression analysis using the GraphPad PRISM version 5.00 program to determine the IC50 of each compound.
# [2] = test system: CQ-sensitive Plasmodium falciparum NF54 strain; experiment: Fixed ratio combination (isobologram) experiments, 72-h pLDH assay; assay type: cell-based; details: asexual blood stages, Pf NF54, fixed ratio isobologram
# Description: Artemisone was used in the combination studies with each of AD01 and PhX6. Combination studies were conducted using a modified version of the method described by [Fivelman et al. (2004)] ([Fivelman et al., 2004]). Against drug-sensitive NF54 P. falciparum parasites in the standard 72-h pLDH assay. The drug stocks were then mixed to make 6 different volumetric ratios to obtain a range of concentrations (Table 2). Concentration ranges for combinations were prepared from the predetermined single IC50 values (Table 3) such that the IC50 of the individual compounds would be in the middle of the plate. The FIC50 and ∑FIC were calculated as described in Eqs 6–8 ([Fivelman et al., 2004]).
# Eq. 6: FIC50 of compound A FIC50A=IC50 A+B/IC50 A
# Eq. 7: FIC50 of compound B FIC50B=IC50 B+A/IC50 B
# Finally, FIC50 values of compounds in respective combinations were plotted as isobolograms.
# Although there is currently no standardised method to determine drug combination effects, many models are available ([Wagner and Ulrich-Merzenich, 2009]; [Matthews et al., 2017]). The fixed ratio isobologram method has been widely used in many fields including antimalarial drug discovery and development ([Fivelman et al., 2004]; [Wagner and Ulrich-Merzenich, 2009]; [Matthews et al., 2017]). […] The relationship can also be determined by plotting the FIC50 of each compound on separate axes to create an isobologram. […]
# [3] = Plasma protein binding, ultracentrifugation; assay type: in vitro ADME; details: pooled human plasma
# Description: Plasma protein binding. Plasma protein binding was determined in pooled human plasma using an ultracentrifugation method. Stock solutions of test compounds (10 mM) were diluted in phosphate buffer and spiked into plasma in deep well 96-well plates (10 µM). An aliquot of each compound was immediately precipitated with ice cold acetonitrile containing the internal standard carbamazepine (0.1 μM). These served as total concentration samples. After incubation in a water bath at 37°C for 1 h, the samples were transferred to ultracentrifuge tubes in duplicate and centrifuged for 4 h at 37°C and 30,000 g (Optima L-80XP, Beckman). Following centrifugation, the supernatant was transferred to the plate containing the total concentration samples and precipitated with ice cold acetonitrile containing the internal standard. Analyte concentrations of all compounds were determined via LC-MS/MS (reverse phase Gemini NX-C18 column and Shimadzu HPLC coupled with an AB Sciex 3200 Q TRAP MS) as described above. • vi.
SMILES,Resistance index [1],IC50 [1] [µM],"Interaction in combination with artemisone (overall, in words) [2]","fraction unbound at 1 h, 10 µM [3]"
CCN(CC)c1ccc2nc3ccc(=[N+](CC)CC)cc-3sc2c1 [AD01],0.5,0.0119 ± 0.0028,enhanced synergistically,–
CCN(CC)c1ccc2nc3c4ccccc4/c(=N\c4ccccn4)cc-3oc2c1 [PhX6],0.4,0.0162 ± 0.0024,enhanced synergistically,0.1
